Source: ChEMBL document CHEMBL6134864, “Discovery of FLT3-ITD Inhibitor Clifutinib: A Novel Biphenylacetylene Urea Derivative in Clinical Trials for the Treatment of Relapsed/Refractory FLT3-ITD+ Acute Myeloid Leukemia” (J Med Chem, 2025)
Activity calls are given as the source filed them. No cut-off for these calls is given here.

How the values were obtained:
[1] = Cmax in rat plasma at 5 mg/kg, po measured up to 24 hrs by LC-MS/MS analysis; format: ADME, organism-based
[2] = Oral bioavailability in rat plasma at 5 mg/kg measured up to 24 hrs by LC-MS/MS analysis; format: ADME, organism-based
[3] = AUC last in mouse plasma at 10 mg/kg, po measured up to 24 hrs by LC-MS/MS analysis; format: ADME, organism-based
[4] = Cmax in dog plasma at 1 mg/kg, iv measured up to 24 hrs by LC-MS/MS analysis; format: ADME, organism-based, Canis lupus familiaris
[5] = AUC last in dog plasma at 1 mg/kg, iv measured up to 24 hrs by LC-MS/MS analysis; format: ADME, organism-based, Canis lupus familiaris
[6] = Half life in dog plasma at 1 mg/kg, iv measured up to 24 hrs by LC-MS/MS analysis; format: ADME, organism-based, Canis lupus familiaris
[7] = Volume of distribution at steady state in dog plasma at 1 mg/kg, iv measured up to 24 hrs by LC-MS/MS analysis; format: ADME, organism-based, Canis lupus familiaris; settings: read-out: Vdss
[8] = Tmax in monkey plasma at 1 mg/kg, iv measured up to 24 hrs by LC-MS/MS analysis; format: ADME, organism-based, Macaca mulatta; settings: rhesus monkey
[9] = Cmax in monkey plasma at 1 mg/kg, iv measured up to 24 hrs by LC-MS/MS analysis; format: ADME, organism-based, Macaca mulatta; settings: rhesus monkey
[10] = AUC last in monkey plasma at 5 mg/kg, po measured up to 24 hrs by LC-MS/MS analysis; format: ADME, organism-based, Macaca mulatta; settings: rhesus monkey, in vivo
[11] = Half life in monkey plasma at 5 mg/kg, po measured up to 24 hrs by LC-MS/MS analysis; format: ADME, organism-based, Macaca mulatta; settings: rhesus monkey
[12] = target: hERG (KCNH2) (Homo sapiens, UniProt Q12809); assay: Inhibition of human ERG expressed in CHO cells at 30 uM by manual patch clamp assay relative to control; format: toxicity, cell-based; settings: CHO cells expressing human ERG
Sequence of hERG (KCNH2) (Q12809 whole entry): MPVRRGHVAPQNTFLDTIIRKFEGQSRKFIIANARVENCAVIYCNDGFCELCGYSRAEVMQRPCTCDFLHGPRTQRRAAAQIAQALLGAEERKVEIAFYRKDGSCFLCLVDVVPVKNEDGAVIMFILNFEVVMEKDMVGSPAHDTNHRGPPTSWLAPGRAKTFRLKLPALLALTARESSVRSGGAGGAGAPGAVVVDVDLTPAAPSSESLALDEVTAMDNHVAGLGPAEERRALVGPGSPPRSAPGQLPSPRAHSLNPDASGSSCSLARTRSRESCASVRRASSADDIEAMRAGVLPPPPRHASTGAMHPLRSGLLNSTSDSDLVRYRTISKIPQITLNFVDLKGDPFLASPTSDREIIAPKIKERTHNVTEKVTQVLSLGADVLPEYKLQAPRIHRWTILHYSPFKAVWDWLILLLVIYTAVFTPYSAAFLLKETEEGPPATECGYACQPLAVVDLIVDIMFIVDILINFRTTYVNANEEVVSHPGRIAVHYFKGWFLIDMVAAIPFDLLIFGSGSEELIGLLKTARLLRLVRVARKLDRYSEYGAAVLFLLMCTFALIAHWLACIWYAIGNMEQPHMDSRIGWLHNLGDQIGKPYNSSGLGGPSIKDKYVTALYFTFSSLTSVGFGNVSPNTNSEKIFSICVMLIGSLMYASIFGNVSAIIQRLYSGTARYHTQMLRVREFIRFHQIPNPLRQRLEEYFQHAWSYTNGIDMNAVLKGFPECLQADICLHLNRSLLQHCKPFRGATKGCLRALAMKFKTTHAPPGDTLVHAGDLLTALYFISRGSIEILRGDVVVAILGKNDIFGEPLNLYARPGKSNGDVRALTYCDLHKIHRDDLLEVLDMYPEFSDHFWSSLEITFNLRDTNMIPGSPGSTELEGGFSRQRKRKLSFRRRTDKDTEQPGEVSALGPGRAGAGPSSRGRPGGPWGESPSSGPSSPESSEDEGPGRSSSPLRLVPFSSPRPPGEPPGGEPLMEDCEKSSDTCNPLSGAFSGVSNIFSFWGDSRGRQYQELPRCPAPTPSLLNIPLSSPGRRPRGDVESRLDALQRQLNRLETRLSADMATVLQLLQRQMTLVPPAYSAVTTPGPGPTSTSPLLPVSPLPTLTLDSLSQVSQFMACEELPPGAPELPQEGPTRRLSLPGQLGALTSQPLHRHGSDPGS

[13] = test system: BaF3; assay: Antiproliferative activity against mouse BaF3 cells harbouring FLT3-ITD assessed as inhibition of cell growth incubated for 72 hrs by celltiter-glo luminescent cell viability assay; format: functional, cell-based; settings: BaF3, 72 h
[14] = test system: BaF3; assay: Antiproliferative activity against mouse BaF3 cells harbouring FLT3-ITD-D835I mutant assessed as inhibition of cell growth incubated for 72 hrs by celltiter-glo luminescent cell viability assay; format: functional, cell-based; settings: BaF3, 72 h
[15] = test system: BaF3; assay: Antiproliferative activity against mouse BaF3 cells harbouring FLT3-ITD-F691L mutant assessed as inhibition of cell growth incubated for 72 hrs by celltiter-glo luminescent cell viability assay; format: functional, cell-based; settings: BaF3, 72 h
[16] = test system: BaF3; assay: Antiproliferative activity against mouse BaF3 cells harbouring FLT3-ITD-F691I mutant assessed as inhibition of cell growth incubated for 72 hrs by celltiter-glo luminescent cell viability assay; format: functional, cell-based; settings: BaF3, 72 h
[17] = test system: BaF3; assay: Antiproliferative activity against mouse BaF3 cells harbouring FLT3-D835Y mutant assessed as inhibition of cell growth incubated for 72 hrs by celltiter-glo luminescent cell viability assay; format: functional, cell-based; settings: BaF3, 72 h
[18] = test system: BaF3; assay: Antiproliferative activity against wild type mouse BaF3 cells assessed as inhibition of cell growth incubated for 72 hrs by celltiter-glo luminescent cell viability assay; format: functional, cell-based; settings: BaF3, 72 h
[19] = test system: Receptor-type tyrosine-protein kinase FLT3 (Homo sapiens), P36888 [UNDEFINED MUTATION]; assay: Inhibition of FLT3 in human MV4-11 cells harbouring FLT3-ITD mutant assessed as inhibition of STAT5 phosphorylation level measured after 2 hrs by Western blot analysis; format: cell-based; settings: dose 1-1000 nM
Sequence of Receptor-type tyrosine-protein kinase FLT3 (Homo sapiens), P36888 [UNDEFINED MUTATION] (P36888 whole entry, looked up, stated change not applied): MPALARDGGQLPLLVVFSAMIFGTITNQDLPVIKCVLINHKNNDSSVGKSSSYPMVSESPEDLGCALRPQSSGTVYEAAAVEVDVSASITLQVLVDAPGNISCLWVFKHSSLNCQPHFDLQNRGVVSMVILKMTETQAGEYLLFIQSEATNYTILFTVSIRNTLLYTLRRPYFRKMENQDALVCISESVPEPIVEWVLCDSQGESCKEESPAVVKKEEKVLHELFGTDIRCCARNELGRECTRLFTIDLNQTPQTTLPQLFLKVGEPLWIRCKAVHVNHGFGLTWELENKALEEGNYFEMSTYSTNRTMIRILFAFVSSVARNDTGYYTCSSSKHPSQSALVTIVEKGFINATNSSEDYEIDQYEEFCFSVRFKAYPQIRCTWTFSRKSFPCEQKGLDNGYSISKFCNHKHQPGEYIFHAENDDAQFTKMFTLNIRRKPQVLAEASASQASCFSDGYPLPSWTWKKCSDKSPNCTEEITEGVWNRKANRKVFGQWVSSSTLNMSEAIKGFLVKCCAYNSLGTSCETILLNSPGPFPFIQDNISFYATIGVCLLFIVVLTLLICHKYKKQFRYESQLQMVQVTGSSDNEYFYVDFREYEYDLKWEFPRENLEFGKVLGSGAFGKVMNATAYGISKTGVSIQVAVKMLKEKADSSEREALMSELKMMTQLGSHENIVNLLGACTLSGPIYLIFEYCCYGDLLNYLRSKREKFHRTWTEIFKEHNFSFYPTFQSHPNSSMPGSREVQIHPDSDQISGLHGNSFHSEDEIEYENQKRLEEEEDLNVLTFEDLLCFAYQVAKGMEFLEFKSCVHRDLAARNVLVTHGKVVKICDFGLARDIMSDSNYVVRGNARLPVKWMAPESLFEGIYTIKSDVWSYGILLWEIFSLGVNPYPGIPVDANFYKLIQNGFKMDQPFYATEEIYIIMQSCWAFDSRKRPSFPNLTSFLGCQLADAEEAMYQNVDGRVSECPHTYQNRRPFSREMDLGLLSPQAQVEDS

[20] = test system: Receptor-type tyrosine-protein kinase FLT3 (Homo sapiens), P36888 [UNDEFINED MUTATION]; assay: Inhibition of FLT3 in human MV4-11 cells harbouring FLT3-ITD mutant assessed as effect on ERK protein level at 1 to 1000 nM measured after 2 hrs by Western blot analysis; format: cell-based; settings: dose 1-1000 nM
[21] = target: Mast/stem cell growth factor receptor Kit (Homo sapiens, UniProt P10721, T670I/V559D); assay: Inhibition of human KIT V559D/T670I mutant by biochemical kinase binding assay
Sequence of Mast/stem cell growth factor receptor Kit (P10721 26-976 V559D/T670I limits assumed): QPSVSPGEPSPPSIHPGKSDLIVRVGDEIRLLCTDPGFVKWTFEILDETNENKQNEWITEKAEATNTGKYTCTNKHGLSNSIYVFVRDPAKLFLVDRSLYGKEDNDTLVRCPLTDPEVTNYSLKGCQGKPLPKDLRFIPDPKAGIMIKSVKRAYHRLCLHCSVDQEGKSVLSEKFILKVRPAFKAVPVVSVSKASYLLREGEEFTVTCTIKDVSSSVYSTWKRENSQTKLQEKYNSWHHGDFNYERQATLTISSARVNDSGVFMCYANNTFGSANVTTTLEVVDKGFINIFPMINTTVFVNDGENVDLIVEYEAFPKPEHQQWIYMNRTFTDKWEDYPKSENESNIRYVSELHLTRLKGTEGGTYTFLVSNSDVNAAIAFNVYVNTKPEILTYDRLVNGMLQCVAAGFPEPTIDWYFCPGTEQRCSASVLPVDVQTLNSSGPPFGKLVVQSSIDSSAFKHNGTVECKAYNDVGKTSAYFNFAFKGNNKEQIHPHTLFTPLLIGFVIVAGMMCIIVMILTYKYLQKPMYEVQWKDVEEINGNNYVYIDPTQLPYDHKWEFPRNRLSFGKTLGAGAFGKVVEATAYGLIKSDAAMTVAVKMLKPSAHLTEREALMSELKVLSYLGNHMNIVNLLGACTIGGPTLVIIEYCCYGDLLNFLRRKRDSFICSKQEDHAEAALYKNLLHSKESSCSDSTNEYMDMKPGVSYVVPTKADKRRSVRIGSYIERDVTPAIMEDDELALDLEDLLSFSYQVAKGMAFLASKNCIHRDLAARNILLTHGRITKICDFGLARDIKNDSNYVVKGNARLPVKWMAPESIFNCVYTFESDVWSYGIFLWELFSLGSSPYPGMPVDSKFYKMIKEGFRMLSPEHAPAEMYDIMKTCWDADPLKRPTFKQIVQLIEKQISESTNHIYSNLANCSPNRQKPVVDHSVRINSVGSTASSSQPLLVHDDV

[22] = target: Cytochrome P450 2C8 (Homo sapiens, UniProt P10632); assay: Inhibition of CYP2C8 in human liver microsomes by UPLC-MS/MS analysis; format: ADME, Microsome
Sequence of Cytochrome P450 2C8 (P10632 whole entry): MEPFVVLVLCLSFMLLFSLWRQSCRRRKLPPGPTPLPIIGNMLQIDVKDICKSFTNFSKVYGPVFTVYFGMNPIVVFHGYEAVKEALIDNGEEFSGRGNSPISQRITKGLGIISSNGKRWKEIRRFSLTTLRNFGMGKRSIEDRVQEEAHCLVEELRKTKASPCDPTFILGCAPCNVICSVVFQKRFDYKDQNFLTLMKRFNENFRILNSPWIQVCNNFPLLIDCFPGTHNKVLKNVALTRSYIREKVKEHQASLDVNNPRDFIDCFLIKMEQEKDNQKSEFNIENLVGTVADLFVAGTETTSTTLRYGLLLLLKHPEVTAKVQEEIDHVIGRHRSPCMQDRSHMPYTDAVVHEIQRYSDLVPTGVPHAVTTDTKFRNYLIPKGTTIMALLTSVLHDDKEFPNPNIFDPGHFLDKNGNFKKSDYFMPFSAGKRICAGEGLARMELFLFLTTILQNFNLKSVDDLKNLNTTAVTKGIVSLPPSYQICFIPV

[23] = target: Cytochrome P450 2C9 (Homo sapiens, UniProt P11712); assay: Inhibition of CYP2C9 in human liver microsomes by UPLC-MS/MS analysis; format: ADME, Microsome
Sequence of Cytochrome P450 2C9 (P11712 whole entry): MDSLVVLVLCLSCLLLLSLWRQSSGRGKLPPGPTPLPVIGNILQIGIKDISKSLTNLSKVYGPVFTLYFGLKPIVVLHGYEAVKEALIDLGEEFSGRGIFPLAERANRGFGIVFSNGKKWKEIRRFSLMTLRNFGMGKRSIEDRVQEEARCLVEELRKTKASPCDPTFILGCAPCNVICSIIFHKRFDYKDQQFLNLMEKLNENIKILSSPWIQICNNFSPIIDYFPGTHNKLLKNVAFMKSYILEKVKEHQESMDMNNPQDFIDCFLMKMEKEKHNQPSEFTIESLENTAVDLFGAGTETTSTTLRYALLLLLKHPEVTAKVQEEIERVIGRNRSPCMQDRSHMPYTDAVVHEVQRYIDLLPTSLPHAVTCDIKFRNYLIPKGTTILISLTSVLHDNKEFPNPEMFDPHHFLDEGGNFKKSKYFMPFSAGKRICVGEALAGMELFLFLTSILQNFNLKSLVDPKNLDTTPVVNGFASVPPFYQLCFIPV

[24] = Toxicity in NOD/SCID mouse assessed as effect on body weight at 20 mg/kg/day, po measured for 7 days; format: organism-based; settings: in vivo, 168 h, time 7 day
[25] = test system: MOLM-13; assay: Antitumor activity against human MOLM-13 cells xenografted in NOD/SCID mouse model assessed as tumor growth inhibition at 0.5 mg/kg/day, po by caliper analysis relative to control; format: functional; settings: read-out: TGI
[26] = Half life in NOD/SCID mouse tumor xenografted with human MV4-11 cells at 0.5 mg/kg, po measured up to 24 hrs by LC-MS/MS analysis; format: ADME, organism-based, Neoplasm
[27] = Tmax in NOD/SCID mouse plasma xenografted with human MV4-11 cells at 4.5 mg/kg, po measured up to 24 hrs by LC-MS/MS analysis; format: ADME, organism-based
[28] = Tmax in NOD/SCID mouse tumor xenografted with human MV4-11 cells at […], po measured up to 24 hrs by LC-MS/MS analysis; format: ADME, organism-based, Neoplasm; settings: dose 1.5 mg/kg
[29] = Tmax in NOD/SCID mouse tumor xenografted with human MV4-11 cells at 4.5 mg/kg, po measured up to 24 hrs by LC-MS/MS analysis; format: ADME, organism-based, Neoplasm
[30] = Cmax in NOD/SCID mouse tumor xenografted with human MV4-11 cells at 0.5 mg/kg, po measured up to 24 hrs by LC-MS/MS analysis; format: ADME, organism-based, Neoplasm
[31] = Cmax in NOD/SCID mouse tumor xenografted with human MV4-11 cells at […], po measured up to 24 hrs by LC-MS/MS analysis; format: ADME, organism-based, Neoplasm; settings: dose 1.5 mg/kg
[32] = AUC (0 to t) in NOD/SCID mouse plasma xenografted with human MV4-11 cells at 0.5 mg/kg, po measured up to 24 hrs by LC-MS/MS analysis; format: ADME, organism-based
[33] = AUC (0 to t) in NOD/SCID mouse tumor xenografted with human MV4-11 cells at […], po measured up to 24 hrs by LC-MS/MS analysis; format: ADME, organism-based, Neoplasm; settings: dose 1.5 mg/kg
[34] = test system: MOLT-4; assay: cells; settings: Homo sapiens, MOLT-4, 72 h
Description: Antiproliferative activity against human MOLT-4 cells assessed as inhibition of cell growth incubated for 72 hrs by celltiter-glo luminescent cell viability assay

[35] = test system: SK-OV-3; assay: cells; settings: Homo sapiens, SK-OV-3, 72 h
Description: Antiproliferative activity against human SK-OV-3 cells assessed as inhibition of cell growth incubated for 72 hrs by celltiter-glo luminescent cell viability assay

[36] = test system: COLO 205; assay: cells; settings: Homo sapiens, COLO 205, 72 h
Description: Antiproliferative activity against human COLO 205 cells assessed as inhibition of cell growth incubated for 72 hrs by celltiter-glo luminescent cell viability assay

[37] = test system: HCT-116; assay: cells; settings: Homo sapiens, HCT-116, 72 h
Description: Antiproliferative activity against human HCT-116 cells assessed as inhibition of cell growth incubated for 72 hrs by celltiter-glo luminescent cell viability assay

[38] = test system: 786-0; assay: cells; settings: Homo sapiens, 786-0, 72 h
Description: Antiproliferative activity against human 786-0 cells assessed as inhibition of cell growth incubated for 72 hrs by celltiter-glo luminescent cell viability assay

[39] = test system: BaF3; assay: cells; settings: Mus musculus, BaF3, 72 h
[40] = test system: BaF3; assay: cells; settings: Mus musculus, BaF3, 72 h; remark: listed apart in the source
[41] = test system: BaF3; assay: cells; settings: Mus musculus, BaF3, 72 h; remark: listed apart in the source
Description: Antiproliferative activity against mouse BaF3 cells harbouring FLT3-D83HY mutant assessed as inhibition of cell growth incubated for 72 hrs by celltiter-glo luminescent cell viability assay

CC(C)(C)c1cc(NC(=O)Nc2ccc(C#Cc3ccc(OCCCN4CCOCC4)cc3)cc2)no1
Cmax [1]: 895 ng/mL
bioavailability [2]: 67.9%
AUC(0-t) at 24 h [3]: 4380 ng·h/mL
Cmax [4]: 633 ng/mL
AUC(0-t) at 24 h [5]: 1290 ng·h/mL
half-life [6]: 6.28 h
Vd [7]: 5.08 L/kg
Tmax [8]: 4.98 min
Cmax [9]: 4720 ng/mL
AUClast [10]: 10800 ng·h/mL
half-life [11]: 8.94 h
inhibition at 30 µM [12]: 22.8%
IC50 [13]: 0.9 nM
IC50 [14]: 302 nM
IC50 [15]: 154 nM
IC50 [16]: 154 nM
IC50 [17]: 5.4 nM
IC50 [18]: > 1000 nM
inhibition [19]: Dose-dependent-effect
inhibition [20]: inactive
IC50 [21]: 283 nM
IC50 [22]: > 33300 nM
IC50 [23]: > 33300 nM
Activity [24]: Non-toxic
inhibition in vivo at 0.5 mg/kg/day [25]: 39%
half-life [26]: 11.3 h
Tmax [27]: 1 h
Tmax at 24 h [28]: 6 h
Tmax [29]: 6 h
Cmax [30]: 23.3 ng/mL
Cmax at 24 h [31]: 91.9 ng/mL
AUC(0-t) at 24 h [32]: 58.9 ng·h/mL
AUC(0-t) at 24 h [33]: 1470 ng·h/mL
IC50 [34]: > 10000 nM
IC50 [35]: > 10000 nM
IC50 [36]: > 10000 nM
IC50 [37]: 8500 nM
IC50 [38]: 3400 nM
IC50 [39]: 74.7 nM
IC50 [40]: 2.9 nM
IC50 [41]: 10.9 nM
